Experimental data taken from ChEMBL document CHEMBL4184182, “Studies on interactions of carbazole derivatives with DNA, cell image, and cytotoxicity” (Bioorg Med Chem, 2018).
Calls of active or inactive are those of the source. The rule behind the calls is not given here.

Key:
[1] = system: HepG2; assay: Induction of morphological changes in human HepG2 cells assessed as cellular clumping at 10 uM after 24 hrs; format: functional, cell-based
[2] = system: HepG2; assay: Induction of morphological changes in human HepG2 cells assessed as debris formation at 10 uM after 24 hrs; format: functional, cell-based
[3] = system: dsDNA; assay: Binding affinity to 26-mer duplex DNA (unknown origin) assessed as hyperchromicity at 15 uM after 5 mins by UV-Visible absorbance titration method; format: nucleic-acid assay
[4] = system: Quadruplex DNA; assay: Binding affinity to c-Myc G-quadruplex DNA (unknown origin) assessed as emission maximum at 5 uM after 5 mins by fluorescence titration method (reference value: 559 nanometer); format: nucleic-acid assay
[5] = system: Quadruplex DNA; assay: Binding affinity to Bcl2 G-quadruplex DNA (unknown origin) assessed as absorption maximum at 5 uM after 5 mins by fluorescence titration method (reference value: 405 nanometer); format: nucleic-acid assay
[6] = system: Calf thymus DNA; assay: Binding affinity to calf thymus DNA assessed as hyperchromicity at 15 uM after 5 mins by UV-Visible absorbance titration method; format: nucleic-acid assay; settings: Bos taurus
[7] = system: Quadruplex DNA; assay: Binding affinity to c-Kit G-quadruplex DNA (unknown origin) assessed as absorption maximum at 5 uM after 5 mins by fluorescence titration method (reference value: 405 nanometer); format: nucleic-acid assay
[8] = system: dsDNA; assay: Binding affinity to 26-mer duplex DNA (unknown origin) assessed as emission maximum at 5 uM after 5 mins by fluorescence titration method (reference value: 559 nanometer); format: nucleic-acid assay
[9] = system: dsDNA; assay: Binding affinity to 26-mer duplex DNA (unknown origin) assessed as compound fluorescence life time at 5 uM after 5 mins by fluorescence titration method (reference value: 3.626 nanoseconds); format: nucleic-acid assay
[10] = system: Quadruplex DNA; assay: Binding affinity to Bcl2 G-quadruplex DNA (unknown origin) assessed as enhanced fluorescence time at 5 uM after 5 mins by fluorescence titration assay relative to control; format: nucleic-acid assay
[11] = system: Quadruplex DNA; assay: Binding affinity to human telomeric G-quadruplex DNA assessed as compound fluorescence life time at 5 uM after 5 mins in presence of potassium ion by fluorescence titration method (reference value: 3.626 nanoseconds); format: nucleic-acid assay
[12] = system: Quadruplex DNA; assay: Binding affinity to human telomeric G-quadruplex DNA assessed as emission maximum at 5 uM after 5 mins in presence of potassium ion by fluorescence titration method (reference value: 559 nanometer); format: nucleic-acid assay
[13] = system: Calf thymus DNA; assay: Binding affinity to calf thymus DNA assessed as absorption maximum at 5 uM after 5 mins by fluorescence titration method (reference value: 405 nanometer); format: nucleic-acid assay; settings: Bos taurus
[14] = Drug uptake in human HepG2 cell cytoplasm at 10 uM after 2.5 hrs by confocal microscopic method; format: ADME, subcellular; settings: hepg2, 2.5 h
[15] = system: Quadruplex DNA; assay: Binding affinity to c-Kit G-quadruplex DNA (unknown origin) assessed as enhanced fluorescence time at 5 uM after 5 mins by fluorescence titration assay relative to control; format: nucleic-acid assay
[16] = system: Quadruplex DNA; assay: Binding affinity to c-Myc G-quadruplex DNA (unknown origin) assessed as compound fluorescence life time at 5 uM after 5 mins by fluorescence titration method (reference value: 3.626 nanoseconds); format: nucleic-acid assay
[17] = system: Quadruplex DNA; assay: Binding affinity to human telomeric G-quadruplex DNA assessed as hyperchromicity at 15 uM after 5 mins in presence of potassium ion by UV-Visible absorbance titration method; format: nucleic-acid assay
[18] = system: Quadruplex DNA; assay: Binding affinity to human telomeric G-quadruplex DNA assessed as red shift at 15 uM after 5 mins in presence of potassium ion by UV-Visible absorbance titration method; format: nucleic-acid assay
[19] = system: Quadruplex DNA; assay: Binding affinity to c-Kit G-quadruplex DNA (unknown origin) assessed as hyperchromicity at 15 uM after 5 mins by UV-Visible absorbance titration method; format: nucleic-acid assay
[20] = system: Quadruplex DNA; assay: Binding affinity to c-Kit G-quadruplex DNA (unknown origin) assessed as red shift at 15 uM after 5 mins by UV-Visible absorbance titration method; format: nucleic-acid assay
[21] = system: Quadruplex DNA; assay: Binding affinity to human telomeric G-quadruplex DNA assessed as red shift at 15 uM after 5 mins in presence of sodium ion by UV-Visible absorbance titration method; format: nucleic-acid assay
[22] = system: Calf thymus DNA; assay: Binding affinity to calf thymus DNA assessed as absorption maximum at 5 uM after 5 mins by fluorescence titration method (reference value: 453 nanometer); format: nucleic-acid assay; settings: Bos taurus
[23] = Drug uptake in RNase-A treated human HepG2 cell cytoplasm at 3 uM after 30 mins by H33258.staining based confocal microscopic method; format: ADME, subcellular; settings: hepg2, 0.5 h
[24] = system: Quadruplex DNA; assay: Binding affinity to Bcl2 G-quadruplex DNA (unknown origin) assessed as hyperchromicity at 10 uM after 5 mins by UV-Visible absorbance titration method; format: nucleic-acid assay
[25] = system: Quadruplex DNA; assay: Binding affinity to c-Myc G-quadruplex DNA (unknown origin) assessed as compound fluorescence life time at 5 uM after 5 mins by fluorescence titration method (reference value: 0.192 nanoseconds); format: nucleic-acid assay
[26] = Drug uptake in RNase-A treated human HepG2 cell nucleus at 3 uM after 30 mins by H33258.staining based confocal microscopic method; format: ADME, subcellular; settings: hepg2, 0.5 h
[27] = system: Quadruplex DNA; assay: Binding affinity to human telomeric G-quadruplex DNA assessed as hyperchromicity at 10 uM after 5 mins in presence of potassium ion by UV-Visible absorbance titration method; format: nucleic-acid assay
[28] = system: Quadruplex DNA; assay: Binding affinity to human telomeric G-quadruplex DNA assessed as compound fluorescence life time at 5 uM after 5 mins in presence of sodium ion by fluorescence titration method (reference value: 0.192 nanoseconds); format: nucleic-acid assay
[29] = system: Quadruplex DNA; assay: Binding affinity to c-Kit G-quadruplex DNA (unknown origin) assessed as red shift at 10 uM after 5 mins by UV-Visible absorbance titration method; format: nucleic-acid assay
[30] = system: HepG2; assay: Induction of morphological changes in human HepG2 cells assessed as debris formation at 5 uM after 24 hrs; format: functional, cell-based
[31] = system: Quadruplex DNA; assay: Binding affinity to c-Myc G-quadruplex DNA (unknown origin) assessed as hyperchromicity at 10 uM after 5 mins by UV-Visible absorbance titration method; format: nucleic-acid assay
[32] = system: Quadruplex DNA; assay: Binding affinity to Bcl2 G-quadruplex DNA (unknown origin) assessed as emission maximum at 5 uM after 5 mins by fluorescence titration method (reference value: 584 nanometer); format: nucleic-acid assay
[33] = system: Quadruplex DNA; assay: Binding affinity to c-Myc G-quadruplex DNA (unknown origin) assessed as emission maximum at 5 uM after 5 mins by fluorescence titration method (reference value: 584 nanometer); format: nucleic-acid assay
[34] = system: Quadruplex DNA; assay: Binding affinity to c-Myc G-quadruplex DNA (unknown origin) assessed as red shift at 10 uM after 5 mins by UV-Visible absorbance titration method; format: nucleic-acid assay
[35] = system: dsDNA; assay: Binding affinity to 26-mer duplex DNA (unknown origin) assessed as emission maximum at 5 uM after 5 mins by fluorescence titration method (reference value: 584 nanometer); format: nucleic-acid assay
[36] = system: Calf thymus DNA; assay: Binding affinity to calf thymus DNA assessed as red shift at 10 uM after 5 mins by UV-Visible absorbance titration method; format: nucleic-acid assay; settings: Bos taurus
[37] = system: Calf thymus DNA; assay: Binding affinity to calf thymus DNA assessed as hyperchromicity at 10 uM after 5 mins by UV-Visible absorbance titration method; format: nucleic-acid assay; settings: Bos taurus
[38] = system: Quadruplex DNA; assay: Binding affinity to human telomeric G-quadruplex DNA assessed as red shift at 10 uM after 5 mins in presence of sodium ion by UV-Visible absorbance titration method; format: nucleic-acid assay
[39] = system: Quadruplex DNA; assay: Binding affinity to human telomeric G-quadruplex DNA assessed as absorption maximum at 5 uM after 5 mins in presence of potassium ion by fluorescence titration method (reference value: 453 nanometer); format: nucleic-acid assay

With CCn1c2ccccc2c2cc(/C=C(\C#N)c3ccc[n+](C)c3)ccc21.[I-] the Activity [1] was “Active”, the Activity [2] was “Active” and the Activity [3] was 27.7%. It also gave an Activity [4] of 547 nm, an Activity [5] of 434 nm and an Activity [6] of 39.4%. For the same compound, the Activity [7] was 432 nm, the Activity [8] was 541 nm and the Time [9] was 2.43 nanoseconds. For the same compound, the fold change (FC) [10] was 11.2 to 20.6, the Time [11] was 6.35 nanoseconds and the Activity [12] was 545 nm. The Activity [13] was 428 nm, the Drug uptake [14] was “Active” and the fold change (FC) [15] was 11.2 to 20.6. For the same compound, the Time [16] was 4.12 nanoseconds, the Activity [17] was 41.2% and the Activity [18] was 23 nm. The Activity [19] was 39.9%, the Activity [20] was 27 nm and the Activity [21] was 17 nm.
For CCn1c2ccccc2c2cc(/C=C/c3sc4ccccc4[n+]3CC)ccc21.[I-], the Activity [22] was 477 nm, the Drug uptake [23] was “Active” and the Activity [24] was 52.6%. For the same compound, the Time [25] was 1.68 nanoseconds, the Drug uptake [26] was “Active” and the Activity [27] was 41.1%. The Time [28] was 2.15 nanoseconds, the Activity [29] was 40 nm and the Activity [30] was “Active”. For the same compound, the Activity [31] was 55.6%, the Activity [32] was 586 nm and the Activity [33] was 581 nm. The Activity [34] was 53 nm, the Activity [35] was 568 nm and the Activity [36] was 24 nm. The Activity [37] was 40.1%, the Activity [38] was 24 nm and the Activity [39] was 474 nm.
